Counter-ions that a name gives are not always drawn. Like-named read-outs stand apart in the source and are kept apart here. Square brackets hold non-standard residues; d marks the D form. Peptide text beside a SMILES is read from it. 1Nal = N[C@@H](Cc1cccc2ccccc12)C(=O)O; Dmt = Cc1cc(O)cc(C)c1C[C@H](N)C(=O)O
What was measured:
male Sprague–Dawley rats [1] = assay: Warm-water tail flick test (antinociception), icv dosing; assay type: in vivo, rat; conditions: for Mean (± SEM) peak tail flick latency: baseline latency 2.0–3.5 s; for Mean (± SEM) ΔLatency-AUC: vehicle 0.8 (± 0.3) s.h
Protocol: To assess a role for opioid receptors in mediating antinociception, rats were dosed with naloxone (10 mg/kg; sc) 10 min prior icv dosing with CYX-5 at the highest dose tolerated (20 nmol).
(§1) Data are presented as mean ± standard error of mean (SEM). One-way analysis of variance was used for analysing the following data: ΔLatency-AUC of warm water tail flick data (Fig. 2B, D); % Small intestinal transit of charcoal meal data and % change of transit relative to vehicle (Fig. 3A, B); AUC of % rats with diarrhoea (% of vehicle control) (Fig. 4B), Cumulative stool weight difference from vehicle (4 h) (Fig. 4D); ΔMV-AUC, ΔRF-AUC and ΔTv-AUC (Fig. 6A–F). Two-way analysis of variance was used for the following data: MV, RF and Tv data for 2 h WPB test (Fig. 5A–F). The analyses were implemented in GraphPad Prism v9.0.0 (GraphPad Software, Inc., La Jolla, CA USA). Dunnett's multiple comparison test was used for post hoc analysis of all the data. For individual animals in the tail flick test, the increase in tail flick latency above baseline (ΔLatency) was calculated for every assessment time point, and the areas under the ΔLatency versus time curve (AUC) values were estimated using trapezoidal integration as using GraphPad™ Prism v9.0.0. For the castor oil-induced diarrhoea test, the percentage of rats with diarrhoea (%AD) was determined for each time point and plotted against time for individual animals. The areas under the curve (%AD-AUC) values were calculated using GraphPad™ Prism v9.0.0. A value of p ≤ 0.05 was the statistical significance criterion. For one-way ANOVA, F values are expressed as Fdf of treatment, residual. For two-way ANOVA, F values are expressed as Fdf of treatment, time, interaction/residual.

male Sprague–Dawley rats [2] = assay: GI motility, charcoal meal test, icv dosing; assay type: in vivo, rat; conditions: for Mean (± SEM) % small intestinal transit (%SIT): n = 6, vehicle 77.3 (± 1.9) %
Protocol: One hour later, the rats were euthanised and the intestine was collected for measurement of the following: (i) the distance from the pylorus to the front edge of the charcoal meal; (ii) the distance between the pylorus and the distal edge of the ileum. The intestinal transit index was determined by dividing measurement (i) by measurement (ii).

male Sprague–Dawley rats [3] = assay: Tolerability / neuro-excitatory clinical signs after icv dosing
DOP receptor [4] = conditions: in vitro; ref [18]; cited from earlier work
MOP receptor [5] = conditions: guinea-pig small intestinal myenteric plexus muscle preparation; ref [18]; cited from earlier work
[6] = Metabolic stability using rat liver microsomes
KOP receptor [7] = conditions: inhibition of forskolin-stimulated cAMP formation, HEK cells stably expressing KOP receptor; ref Cai et al. [18]; cited from earlier work
DOP receptor [8] = conditions: inhibition of forskolin-stimulated cAMP formation, HEK cells stably expressing DOP receptor, cited from earlier work
MOP receptor [9] = conditions: in vitro; ref [18]; cited from earlier work
MOP receptor [10] = conditions: mean ± SEM; ref [18]; cited from earlier work
From the text: (§2) By comparison, CYX-5 is a truncated analogue of EM-2 (H-Dmt-Pro-Nal-NH2; Nal: 3-(1-naphthyl)-L-alanine) (Fig. 1). In vitro, CYX-5, like CYX-6, was a G-protein biassed ligand at MOP, DOP and KOP receptors. […] In the forskolin-stimulated cAMP assay in HEK-cells expressing murine MOP, D ...

DOP receptor [11] = conditions: mean ± SEM; ref [18]; cited from earlier work
From the text: as §2

MOP receptor [12] = conditions: inhibition of forskolin-stimulated cAMP formation, HEK cells stably expressing MOP receptor; ref Cai et al. [18]; cited from earlier work
male Sprague–Dawley rats [13] = assay: Respiratory function by whole body plethysmography, icv dosing; assay type: in vivo, rat
Protocol: After acclimatisation for 30–60 min, respiratory parameters were recorded for 45 min pre-dosing (three 15 min cycles) and for 2 h post-dosing (eight 15 min cycles). In each cycle, rats breathed normal air for 1 min, followed by a hypercapnic gas mixture (8% CO2, 21% O2 and 71% N2) for 5 min and then a 9 min recovery period breathing normal air. Respiratory parameters recorded by the blinded tester (M.Z.I.) included minute ventilation (MV), respiratory frequency (RF) and tidal volume (Tv) using the BioSystem XA software. The baseline was calculated as the mean difference in MV (ΔMV), RF (ΔRF) and Tv (ΔTv) during the pre-dosing exposure to normal air and the hypercapnic gas mixture.

KOP receptor [14] = conditions: in vitro; ref [18]; cited from earlier work
male Sprague–Dawley rats [15] = assay: Inhibition of castor oil-induced diarrhoea, icv dosing; assay type: in vivo, rat; conditions: for Mean (± SEM) %AUC of % rats with diarrhoea (% of vehicle control): 8 h, vehicle set at 100%; for Cumulative stool weight-area under the curve (CSW-AUC): at 4 h, vehicle 18.3 (± 1.1) g.h
Protocol: After an overnight fast (16 h), the pre-dosing stool consistency of individual rats was recorded. […] The weight and consistency of faeces were recorded pre-dose and hourly for 8 h post-dosing for individual animals. The scoring criteria for faeces consistency were as follows: 0 = normal faeces, 1 = well-shaped wet faeces, 2 = shapeless faeces, 3 = shapeless faeces with large amounts of liquid. A score of ≥ 2 for both weight and consistency was defined as diarrhoea.
as §1

male Sprague–Dawley rats [16] = conditions: cited from earlier work; for Antinociception, warm water tail flick test: icv, male Sprague–Dawley rats, ref Imam et al. [19]
male Sprague–Dawley rats [17] = conditions: cited from earlier work
male Sprague–Dawley rats [18] = conditions: cited from earlier work; remark: listed apart in the source
male Sprague–Dawley rats [19] = conditions: cited from earlier work; remark: listed apart in the source
mice = conditions: sc, ref [27]; cited from earlier work
[20] = icv, male Sprague–Dawley rats, √/X not defined
[21] = icv 100 nmol, n = 6, biphasic profile, data re-used, ref [19]
[22] = icv 100 nmol, data re-used, ref [19]
[23] = icv, male Sprague–Dawley rats, ref Imam et al. [19], Kuo et al. [23]

## Cc1cc(O)cc(C)c1C[C@H](N)C(=O)N1CCC[C@H]1C(=O)N[C@@H](Cc1cccc2ccccc12)C(N)=O [CYX-5, H-Dmt-Pro-Nal-NH2] (H-[Dmt]-Pro-[1Nal]-NH2)
Male Sprague–Dawley rats [1]; icv 3 nmol, n = 6, rats
  Mean (± SEM) peak tail flick latency: 5.2 (± 0.6) s
Male Sprague–Dawley rats [1]; icv 3 nmol, n = 6
  Mean (± SEM) ΔLatency-AUC: 3.2 (± 0.9) s.h
Male Sprague–Dawley rats [1]; icv 10 nmol, n = 6, rats
  Mean (± SEM) peak tail flick latency: 4.0 (± 0.3) s
Male Sprague–Dawley rats [1]; icv 10 nmol, n = 6
  Mean (± SEM) ΔLatency-AUC: 2.1 (± 0.5) s.h
Male Sprague–Dawley rats [1]; icv 20 nmol, highest dose tolerated
  Antinociception (tail flick), in words: moderate antinociception
Male Sprague–Dawley rats [1]; icv 20 nmol, n = 7, rats
  Mean (± SEM) peak tail flick latency: 5.5 (± 0.5) s
Male Sprague–Dawley rats [1]; icv 20 nmol, n = 7, significantly different from vehicle
  Mean (± SEM) ΔLatency-AUC: 4.8 (± 0.6) s.h
Male Sprague–Dawley rats [1]; icv 3, 10 and 20 nmol, post-dose
  Mean time to peak effect (tail flick): 1 h
Male Sprague–Dawley rats [1]; [20]
  Antinociception, warm water tail flick test: √
Male Sprague–Dawley rats [1]; naloxone 10 mg/kg sc 10 min prior to icv 20 nmol
  Effect of naloxone pre-treatment on antinociception: completely attenuated
Male Sprague–Dawley rats [2]; icv 3 nmol
  Mean (± SEM) % small intestinal transit (%SIT): 68.7 (± 2.7) %
Male Sprague–Dawley rats [2]; icv 10 nmol
  Mean (± SEM) % small intestinal transit (%SIT): 64.8 (± 6.8) %
Male Sprague–Dawley rats [2]; icv 20 nmol
  Mean (± SEM) % small intestinal transit (%SIT): 64.4 (± 3.4) %
Male Sprague–Dawley rats [2]; [20]
  Constipation, inhibition of GI motility: √
Male Sprague–Dawley rats [3]; icv 20 nmol
  Duration of postural abnormalities (flattened torso, splayed legs, ataxia): up to 90 min
  Rats with mild, intermittent, transient clinical signs of neuroexcitation: ~ 50%
Male Sprague–Dawley rats [3]; pilot study, rats
  Maximum tolerated dose, icv: 20 nmol
Male Sprague–Dawley rats [3]; preliminary experiment, icv 30 nmol, convulsions, barrel roll, wet-dog shakes, excessive alertness
  Side effects at 30 nmol icv: pronounced neuro-excitatory side effects
DOP receptor [4]
  Recruitment of β-arrestin2 at DOP receptor: lack of recruitment
MOP receptor [5]
  MOP receptor agonism ex vivo: potent MOP receptor agonism
[6]
  half-life: 57.6 min
KOP receptor [7]
  In vitro agonist or antagonist activity, KOP receptor: Agonist^a
DOP receptor [8]; ref Cai et al. [18]
  In vitro agonist or antagonist activity, DOP receptor: Antagonist^a
MOP receptor [9]
  Recruitment of β-arrestin2 at MOP receptor: lack of recruitment
MOP receptor [10]
  Ki: 0.7 ± 0.08 nM
DOP receptor [11]
  Ki: 121 ± 10.2 nM
MOP receptor [12]
  In vitro agonist or antagonist activity, MOP receptor: Agonist^a
Male Sprague–Dawley rats [13]; icv 20 nmol, n = 6, hypercapnic conditions (8% CO2), awake rats
  Effect on minute ventilation: significant stimulatory effect
Male Sprague–Dawley rats [13]; icv 20 nmol, n = 6, hypercapnic gas mixture
  Effect on tidal volume: significant increase
Male Sprague–Dawley rats [13]; icv 20 nmol, n = 6, normal air and hypercapnic gas exposure
  Effect on respiratory frequency: insignificant
Male Sprague–Dawley rats [13]; icv, hypercapnic conditions, awake freely moving rats, √/X not defined
  Respiratory function, stimulation of minute ventilation: √
KOP receptor [14]
  Recruitment of β-arrestin2 at KOP receptor: lack of recruitment
Male Sprague–Dawley rats [15]; icv 3 nmol, n = 7
  Mean (± SEM) %AUC of % rats with diarrhoea (% of vehicle control): 72.6 (± 10.8) %AD.h
Male Sprague–Dawley rats [15]; icv 3 nmol
  Cumulative stool weight-area under the curve (CSW-AUC): 11.7 (± 1.5) g.h
Male Sprague–Dawley rats [15]; icv 10 nmol, n = 6
  Mean (± SEM) %AUC of % rats with diarrhoea (% of vehicle control): 78.5 (± 7.6) %AD.h
Male Sprague–Dawley rats [15]; icv 10 nmol
  Cumulative stool weight-area under the curve (CSW-AUC): 13.4 (± 4.1) g.h
Male Sprague–Dawley rats [15]; icv 20 nmol, n = 6
  Mean (± SEM) %AUC of % rats with diarrhoea (% of vehicle control): 68.4 (± 2.6) %AD.h
Male Sprague–Dawley rats [15]; icv 20 nmol
  Cumulative stool weight-area under the curve (CSW-AUC): 2.5 (± 0.9) g.h
Male Sprague–Dawley rats [15]; icv 3, 10 and 20 nmol, oral castor oil 2.5 ml, vehicle 3 h
  Time to develop diarrhoea in all animals: 5 h

## CN1CC[C@]23c4c5ccc(O)c4O[C@H]2[C@@H](O)C=C[C@H]3[C@H]1C5 [morphine, morphine hydrochloride]
Male Sprague–Dawley rats [16]; [21]
  First antinociceptive peak tail flick latency, mean (± SEM): 8.9 (± 0.5) s
  Second antinociceptive peak tail flick latency, mean (± SEM): 10.0 (± 0.0) s
Male Sprague–Dawley rats [16]; [22]
  Antinociception (tail flick), in words: pronounced antinociception
  Mean time to first peak effect (tail flick): 0.75 h
  Mean time to second peak effect (tail flick): 1.5 h
Male Sprague–Dawley rats [16]; Kuo et al. [23]
  Antinociception, warm water tail flick test: √^b,d
DOP receptor [8]; ref Kuo et al. [36]
  In vitro agonist or antagonist activity, DOP receptor: Agonist^c
Male Sprague–Dawley rats [17]; icv 100 nmol, oral castor oil, data re-used, ref [19]
  Time by which animals developed diarrhoea: 7 h
Male Sprague–Dawley rats [17]; [23]
  Constipation, inhibition of castor oil-induced diarrhoea: √^b,d
Male Sprague–Dawley rats [18]; icv 100 nmol, n = 12, data re-used, ref [19]
  Mean (± SEM) % small intestinal transit (%SIT): 22.0 (± 3.4) %
Male Sprague–Dawley rats [18]; [23]
  Constipation, inhibition of GI motility: √^b,d
Male Sprague–Dawley rats [19]; icv 100 nmol, n = 6, hypercapnic gas mixture, relative to vehicle, data re-used, ref [19]
  Effect on respiratory frequency: reduced respiratory frequency significantly
Male Sprague–Dawley rats [19]; icv 100 nmol, n = 6, hypercapnic gas mixture, time of peak effect, data re-used, ref [19]
  Effect on minute ventilation: reduced minute ventilation
Male Sprague–Dawley rats [19]; icv, hypercapnic conditions, awake rats, ref Imam et al. [19], Kuo et al. [23]
  Respiratory function, depression of minute ventilation: √^b,d

## CN1CC[C@]23c4c5ccc(O)c4O[C@H]2C(=O)CC[C@@]3(OCCCc2ccccc2)[C@H]1C5 [14-O-phenylpropyloxymorphone]
mice
  Fold less potent for inhibition of GI transit compared with antinociception: 2.4 fold

## H-Dmt-Pro-Tmp-Tmp-NH2 [CYX-6]
Male Sprague–Dawley rats [16]
  Antinociception, warm water tail flick test: √^b
KOP receptor [7]
  In vitro agonist or antagonist activity, KOP receptor: Antagonist^a
DOP receptor [8]; ref Cai et al. [18]
  In vitro agonist or antagonist activity, DOP receptor: Antagonist^a
MOP receptor [12]
  In vitro agonist or antagonist activity, MOP receptor: Agonist^a
Male Sprague–Dawley rats [19]; icv, hypercapnic conditions, awake rats, ref Imam et al. [19]
  Respiratory function, stimulation of minute ventilation: √^b

— publication PMC10227131 (Pharmacological Reports, 2023)
